ChEMBL document CHEMBL5579823, “Discovery of 7-alkoxybenzofurans as PDE4 inhibitors with hepatoprotective activity in D-GalN/LPS-induced hepatic sepsis” (Eur J Med Chem, 2024)
Calls of active or inactive are those of the source. The rule behind the calls is not given here.

Legend:
[1] = molecular target: T1, 3',5'-cyclic-AMP phosphodiesterase 4B (Homo sapiens, UniProt Q07343); assay: Inhibition of PDE4B1 (unknown origin)
[2] = molecular target: T2, 3',5'-cyclic-AMP phosphodiesterase 4D (Homo sapiens, UniProt Q08499); assay: Inhibition of PDE4D7 (unknown origin)
[3] = molecular target: T1, 3',5'-cyclic-AMP phosphodiesterase 4B; assay: Inhibition of recombinant human N-terminal GST-tagged PDE4B1 (1 to 736 residues) expressed in Sf9 insect cells using FAM-cyclic-3',5'-AMP as substrate measured after 1 hr by fluorescence polarization assay
[4] = molecular target: T2, 3',5'-cyclic-AMP phosphodiesterase 4D; assay: Inhibition of human N-terminal GST-tagged PDE4D7 (2 to 748 residues) expressed in baculovirus infected Sf9 insect cells using FAM-cyclic-3',5'-AMP as substrate measured after 1 hr by fluorescence polarization assay
[5] = Oral bioavailability in mouse at 5 mg/kg by LC-MS/MS analysis; format: ADME, organism-based; details: in vivo
[6] = molecular target: High affinity 3',5'-cyclic-AMP phosphodiesterase 7A (Homo sapiens) (UniProt Q13946); assay: Inhibition of PDE7A (unknown origin) at 20 uM using FAM-cyclic-3',5'-AMP as substrate measured after 1 hr by fluorescence polarization assay relative to control
[7] = Tmax in Sprague-Dawley rat at 5 mg/kg, po by LC-MS/MS analysis; format: ADME, organism-based; details: in vivo
[8] = AUC(0 to infinity) in Sprague-Dawley rat at 5 mg/kg, po by LC-MS/MS analysis; format: ADME, organism-based; details: in vivo
[9] = molecular target: High affinity cGMP-specific 3',5'-cyclic phosphodiesterase 9A (Homo sapiens) (UniProt O76083); assay: Inhibition of human N-terminal GST-tagged full-length PDE9A2 expressed in baculovirus infected Sf9 insect cells at 10 uM using FAM-cyclic-3',5'-AMP as substrate measured after 1 hr by fluorescence polarization assay relative to control
[10] = MRT(0 to t) in Sprague-Dawley rat at 5 mg/kg, iv by LC-MS/MS analysis; format: ADME, organism-based; details: in vivo
[11] = AUC (0 to t) in Sprague-Dawley rat at 5 mg/kg, iv by LC-MS/MS analysis; format: ADME, organism-based; details: in vivo
[12] = molecular target: High affinity cGMP-specific 3',5'-cyclic phosphodiesterase 9A (Homo sapiens) (UniProt O76083); assay: Inhibition of human N-terminal GST-tagged full-length PDE9A2 expressed in baculovirus infected Sf9 insect cells at 20 uM using FAM-cyclic-3',5'-AMP as substrate measured after 1 hr by fluorescence polarization assay relative to control
[13] = Clearance in Sprague-Dawley rat at 5 mg/kg, po by LC-MS/MS analysis; format: ADME, organism-based; details: in vivo
[14] = AUC (0 to infinity) in Sprague-Dawley rat at 5 mg/kg, iv by LC-MS/MS analysis; format: ADME, organism-based; details: in vivo
[15] = AUC(0 to t) in Sprague-Dawley rat at 5 mg/kg, po by LC-MS/MS analysis; format: ADME, organism-based; details: in vivo
[16] = molecular target: High affinity cAMP-specific 3',5'-cyclic phosphodiesterase 8A (Homo sapiens) (UniProt O60658); assay: Inhibition of human N-terminal GST-tagged full-length PDE8A1 expressed in baculovirus infected Sf9 insect cells at 10 uM using FAM-cyclic-3',5'-AMP as substrate measured after 1 hr by fluorescence polarization assay relative to control
[17] = Volume of distribution in Sprague-Dawley rat at 5 mg/kg, po by LC-MS/MS analysis; format: ADME, organism-based; details: in vivo
[18] = molecular target: cGMP-specific 3',5'-cyclic phosphodiesterase (Homo sapiens) (UniProt O76074); assay: Inhibition of PDE5A (unknown origin) at 20 uM using FAM-cyclic-3',5'-AMP as substrate measured after 1 hr by fluorescence polarization assay relative to control
[19] = Cmax in Sprague-Dawley rat at 5 mg/kg, iv by LC-MS/MS analysis; format: ADME, organism-based; details: in vivo
[20] = molecular target: cGMP-inhibited 3',5'-cyclic phosphodiesterase 3B (Homo sapiens) (UniProt Q13370); assay: Inhibition of recombinant human N-terminal GST-tagged PDE3B (592 to 1112 residues) expressed in Sf9 insect cells at 20 uM using FAM-cyclic-3',5'-AMP as substrate measured after 1 hr by fluorescence polarization assay relative to control
Mus musculus [21] = assay: (§1) Hepatoprotective activity in GalN/LPS-induced C57BL/6J mouse hepatic sepsis model assessed as reduction in aggregation of inflammatory cells at 1 to 3 mg/kg, IG administered once daily for 3 days followed by GalN/LPS addition 1 hr post-last dose measured after 4 hrs by hematoxylin and eosin staining based light microscopy; format: functional, organism-based; details: dose 1-3 mg/kg, time 3.0 day
[22] = MRT(0 to t) in Sprague-Dawley rat at 5 mg/kg, po by LC-MS/MS analysis; format: ADME, organism-based; details: in vivo
[23] = molecular target: High affinity cAMP-specific 3',5'-cyclic phosphodiesterase 8A (Homo sapiens) (UniProt O60658); assay: Inhibition of human N-terminal GST-tagged full-length PDE8A1 expressed in baculovirus infected Sf9 insect cells at 20 uM using FAM-cyclic-3',5'-AMP as substrate measured after 1 hr by fluorescence polarization assay relative to control
[24] = Clearance in Sprague-Dawley rat at 5 mg/kg, iv by LC-MS/MS analysis; format: ADME, organism-based; details: in vivo
[25] = Volume of distribution in Sprague-Dawley rat at 5 mg/kg, iv by LC-MS/MS analysis; format: ADME, organism-based; details: in vivo
[26] = molecular target: cGMP-specific 3',5'-cyclic phosphodiesterase (Homo sapiens) (UniProt O76074); assay: Inhibition of PDE5A (unknown origin) at 10 uM using FAM-cyclic-3',5'-AMP as substrate measured after 1 hr by fluorescence polarization assay relative to control
[27] = Cmax in Sprague-Dawley rat at 5 mg/kg, po by LC-MS/MS analysis; format: ADME, organism-based; details: in vivo
Mus musculus [28] = assay: as §1, with “hepatomegaly” for “aggregation of inflammatory cells”; format: functional, organism-based; details: dose 1-3 mg/kg, time 3.0 day
[29] = molecular target: High affinity 3',5'-cyclic-AMP phosphodiesterase 7A (Homo sapiens) (UniProt Q13946); assay: Inhibition of PDE7A (unknown origin) at 10 uM using FAM-cyclic-3',5'-AMP as substrate measured after 1 hr by fluorescence polarization assay relative to control
Mus musculus [30] = assay: Hepatoprotective activity in GalN/LPS-induced C57BL/6J mouse hepatic sepsis model assessed as reduction in ALT level at 1 to 3 mg/kg, IG administered once daily for 3 days followed by GalN/LPS addition 1 hr post-last dose measured after 4 hrs; format: functional, organism-based; details: dose 1-3 mg/kg, time 3.0 day
Mus musculus [31] = assay: Hepatoprotective activity in GalN/LPS-induced C57BL/6J mouse hepatic sepsis model assessed as reduction in AST level at 1 to 3 mg/kg, IG administered once daily for 3 days followed by GalN/LPS addition 1 hr post-last dose measured after 4 hrs; format: functional, organism-based; details: dose 1-3 mg/kg, time 3.0 day
[32] = Oral bioavailability in Sprague-Dawley rat at 5 mg/kg by LC-MS/MS analysis; format: ADME, organism-based; details: in vivo
[33] = molecular target: cGMP-inhibited 3',5'-cyclic phosphodiesterase 3B (Homo sapiens) (UniProt Q13370); assay: Inhibition of recombinant human N-terminal GST-tagged PDE3B (592 to 1112 residues) expressed in Sf9 insect cells at 10 uM using FAM-cyclic-3',5'-AMP as substrate measured after 1 hr by fluorescence polarization assay relative to control
[34] = Half-life in Sprague-Dawley rat at 5 mg/kg, po by LC-MS/MS analysis; format: ADME, organism-based; details: in vivo
[35] = Half-life in Sprague-Dawley rat at 5 mg/kg, iv by LC-MS/MS analysis; format: ADME, organism-based; details: in vivo
Mus musculus [36] = assay: as §1, with “necrotic morphology” for “aggregation of inflammatory cells”; format: functional, organism-based; details: dose 1-3 mg/kg, time 3.0 day
Mus musculus [37] = assay: Hepatoprotective activity in GalN/LPS-induced C57BL/6J mouse hepatic sepsis model at 3 mg/kg, IG administered once daily for 3 days followed by GalN/LPS addition 1 hr post-last dose measured after 4 hrs by hematoxylin and eosin staining based light microscopy; format: functional, organism-based; details: time 3.0 day

T1 sequence (Q07343 whole entry): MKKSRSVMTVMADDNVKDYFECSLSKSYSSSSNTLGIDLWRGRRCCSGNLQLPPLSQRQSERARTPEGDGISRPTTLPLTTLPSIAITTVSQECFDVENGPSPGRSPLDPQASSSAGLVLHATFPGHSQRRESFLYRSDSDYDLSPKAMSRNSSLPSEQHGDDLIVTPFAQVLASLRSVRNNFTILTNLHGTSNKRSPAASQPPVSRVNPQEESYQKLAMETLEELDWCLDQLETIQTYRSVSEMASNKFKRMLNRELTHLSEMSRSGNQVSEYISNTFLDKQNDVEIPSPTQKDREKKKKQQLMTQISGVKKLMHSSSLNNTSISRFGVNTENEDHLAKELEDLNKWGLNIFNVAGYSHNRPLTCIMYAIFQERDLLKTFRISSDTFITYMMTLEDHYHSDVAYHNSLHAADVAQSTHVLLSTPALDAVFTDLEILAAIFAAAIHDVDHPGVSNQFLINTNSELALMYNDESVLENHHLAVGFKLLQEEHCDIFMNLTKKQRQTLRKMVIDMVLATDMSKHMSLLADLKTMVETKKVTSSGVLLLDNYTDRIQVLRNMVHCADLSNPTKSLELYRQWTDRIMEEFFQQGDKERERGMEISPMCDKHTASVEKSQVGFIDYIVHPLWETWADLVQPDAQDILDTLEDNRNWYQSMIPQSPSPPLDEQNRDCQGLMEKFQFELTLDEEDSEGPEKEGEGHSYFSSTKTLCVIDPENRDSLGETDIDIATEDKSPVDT
Sequence of High affinity cGMP-specific 3',5'-cyclic phosphodiesterase 9A (Homo sapiens) (O76083 whole entry): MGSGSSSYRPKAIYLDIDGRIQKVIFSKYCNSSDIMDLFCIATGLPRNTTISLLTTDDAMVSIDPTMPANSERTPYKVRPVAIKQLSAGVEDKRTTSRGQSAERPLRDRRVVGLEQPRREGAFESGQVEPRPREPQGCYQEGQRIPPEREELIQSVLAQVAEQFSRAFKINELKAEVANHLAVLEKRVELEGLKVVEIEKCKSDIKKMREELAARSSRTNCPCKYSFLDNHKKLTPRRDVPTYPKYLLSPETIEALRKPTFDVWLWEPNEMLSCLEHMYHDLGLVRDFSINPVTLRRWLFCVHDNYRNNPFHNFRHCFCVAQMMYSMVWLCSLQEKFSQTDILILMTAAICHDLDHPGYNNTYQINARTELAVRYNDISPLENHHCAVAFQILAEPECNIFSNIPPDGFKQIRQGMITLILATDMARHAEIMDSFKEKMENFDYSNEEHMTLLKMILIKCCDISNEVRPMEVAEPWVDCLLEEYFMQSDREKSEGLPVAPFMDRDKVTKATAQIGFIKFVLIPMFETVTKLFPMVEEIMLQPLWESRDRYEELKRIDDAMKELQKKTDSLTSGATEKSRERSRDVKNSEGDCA
Sequence of cGMP-inhibited 3',5'-cyclic phosphodiesterase 3B (Homo sapiens) (Q13370 whole entry, looked up, the tested form may be a part): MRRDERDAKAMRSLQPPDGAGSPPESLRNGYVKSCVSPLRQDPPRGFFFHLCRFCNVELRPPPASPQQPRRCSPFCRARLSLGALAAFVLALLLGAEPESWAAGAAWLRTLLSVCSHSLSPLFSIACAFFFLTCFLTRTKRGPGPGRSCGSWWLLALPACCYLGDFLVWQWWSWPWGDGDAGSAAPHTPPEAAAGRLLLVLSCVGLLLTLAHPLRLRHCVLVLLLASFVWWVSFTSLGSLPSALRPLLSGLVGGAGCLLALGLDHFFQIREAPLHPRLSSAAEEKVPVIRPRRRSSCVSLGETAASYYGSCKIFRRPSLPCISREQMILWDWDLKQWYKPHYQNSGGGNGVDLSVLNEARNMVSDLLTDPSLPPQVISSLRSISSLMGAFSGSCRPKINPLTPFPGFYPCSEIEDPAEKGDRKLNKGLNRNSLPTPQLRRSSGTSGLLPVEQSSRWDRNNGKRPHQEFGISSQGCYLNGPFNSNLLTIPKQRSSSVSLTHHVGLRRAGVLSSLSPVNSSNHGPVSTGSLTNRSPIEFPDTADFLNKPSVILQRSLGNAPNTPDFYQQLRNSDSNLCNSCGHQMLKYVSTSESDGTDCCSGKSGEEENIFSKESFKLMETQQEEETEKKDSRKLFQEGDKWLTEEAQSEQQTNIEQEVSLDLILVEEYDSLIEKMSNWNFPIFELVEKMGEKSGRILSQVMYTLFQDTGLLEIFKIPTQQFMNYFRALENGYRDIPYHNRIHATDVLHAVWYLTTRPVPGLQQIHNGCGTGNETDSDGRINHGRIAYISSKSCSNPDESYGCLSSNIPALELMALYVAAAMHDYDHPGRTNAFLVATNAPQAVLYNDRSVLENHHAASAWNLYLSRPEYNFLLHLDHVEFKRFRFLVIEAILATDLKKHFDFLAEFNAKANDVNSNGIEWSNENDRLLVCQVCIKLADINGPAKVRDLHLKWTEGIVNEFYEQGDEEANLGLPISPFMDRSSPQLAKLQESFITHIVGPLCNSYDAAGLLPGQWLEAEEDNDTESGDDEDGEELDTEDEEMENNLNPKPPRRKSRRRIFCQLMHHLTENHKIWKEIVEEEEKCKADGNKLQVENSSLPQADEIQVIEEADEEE
T2 sequence (Q08499 whole entry, the tested form may be a part): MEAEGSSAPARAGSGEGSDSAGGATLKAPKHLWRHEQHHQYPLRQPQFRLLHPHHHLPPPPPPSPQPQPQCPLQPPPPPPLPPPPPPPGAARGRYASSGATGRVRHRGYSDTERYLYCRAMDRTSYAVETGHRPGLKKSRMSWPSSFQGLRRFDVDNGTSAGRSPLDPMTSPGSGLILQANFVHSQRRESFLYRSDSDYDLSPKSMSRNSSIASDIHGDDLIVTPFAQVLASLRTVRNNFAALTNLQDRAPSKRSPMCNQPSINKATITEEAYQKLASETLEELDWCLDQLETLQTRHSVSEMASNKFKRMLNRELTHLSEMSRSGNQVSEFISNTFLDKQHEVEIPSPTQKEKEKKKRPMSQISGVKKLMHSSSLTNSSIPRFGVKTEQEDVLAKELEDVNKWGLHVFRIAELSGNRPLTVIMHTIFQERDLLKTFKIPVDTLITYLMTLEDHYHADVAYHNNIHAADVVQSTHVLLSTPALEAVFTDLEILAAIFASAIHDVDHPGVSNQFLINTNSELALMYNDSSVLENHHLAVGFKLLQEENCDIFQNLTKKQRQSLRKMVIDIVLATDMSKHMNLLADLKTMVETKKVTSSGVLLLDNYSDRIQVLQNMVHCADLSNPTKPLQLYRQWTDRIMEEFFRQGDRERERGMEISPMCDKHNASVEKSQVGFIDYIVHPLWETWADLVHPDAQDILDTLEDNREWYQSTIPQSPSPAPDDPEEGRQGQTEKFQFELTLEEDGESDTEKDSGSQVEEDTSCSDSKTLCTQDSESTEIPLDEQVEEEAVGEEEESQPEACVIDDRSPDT
Sequence of High affinity 3',5'-cyclic-AMP phosphodiesterase 7A (Homo sapiens) (Q13946 whole entry): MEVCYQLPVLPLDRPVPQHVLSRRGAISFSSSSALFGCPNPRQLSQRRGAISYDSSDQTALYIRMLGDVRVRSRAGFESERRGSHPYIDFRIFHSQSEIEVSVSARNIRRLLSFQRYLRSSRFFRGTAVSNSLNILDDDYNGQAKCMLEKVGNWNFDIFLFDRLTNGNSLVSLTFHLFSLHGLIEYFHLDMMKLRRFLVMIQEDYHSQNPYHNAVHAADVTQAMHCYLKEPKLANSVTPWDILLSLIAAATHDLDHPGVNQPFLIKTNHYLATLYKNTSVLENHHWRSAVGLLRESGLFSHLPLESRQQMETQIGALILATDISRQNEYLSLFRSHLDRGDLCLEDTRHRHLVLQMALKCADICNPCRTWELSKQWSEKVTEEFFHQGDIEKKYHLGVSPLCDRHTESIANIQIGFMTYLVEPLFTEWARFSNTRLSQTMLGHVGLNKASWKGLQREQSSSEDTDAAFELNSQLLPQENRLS
Sequence of High affinity cAMP-specific 3',5'-cyclic phosphodiesterase 8A (Homo sapiens) (O60658 whole entry, looked up): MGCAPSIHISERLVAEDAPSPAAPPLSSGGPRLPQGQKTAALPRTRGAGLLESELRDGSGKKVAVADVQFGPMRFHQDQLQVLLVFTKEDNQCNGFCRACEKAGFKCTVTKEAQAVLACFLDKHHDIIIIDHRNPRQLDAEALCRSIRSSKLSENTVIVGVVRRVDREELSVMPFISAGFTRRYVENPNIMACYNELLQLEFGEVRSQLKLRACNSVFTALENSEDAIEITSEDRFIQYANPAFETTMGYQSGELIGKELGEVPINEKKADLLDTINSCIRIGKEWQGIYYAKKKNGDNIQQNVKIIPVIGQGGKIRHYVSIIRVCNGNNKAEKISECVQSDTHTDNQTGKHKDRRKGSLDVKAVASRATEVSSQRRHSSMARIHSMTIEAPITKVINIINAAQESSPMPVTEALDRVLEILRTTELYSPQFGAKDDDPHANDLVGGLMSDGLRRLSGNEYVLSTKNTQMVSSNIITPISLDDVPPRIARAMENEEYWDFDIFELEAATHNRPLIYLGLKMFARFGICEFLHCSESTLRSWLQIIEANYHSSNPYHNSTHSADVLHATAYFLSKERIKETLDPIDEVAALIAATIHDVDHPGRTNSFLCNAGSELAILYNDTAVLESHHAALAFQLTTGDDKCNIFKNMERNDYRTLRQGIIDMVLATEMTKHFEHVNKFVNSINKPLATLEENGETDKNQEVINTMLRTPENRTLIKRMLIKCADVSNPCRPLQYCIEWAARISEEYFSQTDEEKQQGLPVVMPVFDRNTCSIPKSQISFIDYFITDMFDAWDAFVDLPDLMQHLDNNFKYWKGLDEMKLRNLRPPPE

Work on `CCNc1cc(C(=O)C2CCCC2)ccc1OC` yielded an IC50 [1] of 110 nM and an IC50 [2] of 1610 nM.

With `CC(C)NC(=O)c1ccc(OC(F)F)c(OCC2CC2)c1` the IC50 [3] was 31 nM, the IC50 [4] was 47 nM and the bioavailability [5] was less than 5%.

For `COc1ccc(C(=O)Cn2ccnc2)c2cc(C3CC3)oc12`, the IC50 [3] was 10 nM, the inhibition [6] was 15% and the Tmax [7] was 0.88 h. The AUC [8] was 3669.79 ng·h/mL, the inhibition [9] was 5% and the MRT last [10] was 2.31 h. The AUC(0-t) [11] was 5170 ng·h/mL, the inhibition [12] was 12% and the CL/F [13] was 22.8 mL/min/kg. The AUC [14] was 5299.87 ng·h/mL, the AUC(0-t) [15] was 3440 ng·h/mL and the inhibition [16] was 6%. The Vd [17] was 3.91 L/kg, the inhibition [18] was 17% and the Cmax [19] was 1740 ng/mL. The inhibition [20] was 23%, the Activity (Mus musculus [21]) was “Active” and the MRT last [22] was 2.74 h. For the same compound, the inhibition [23] was 14%, the clearance [24] was 15.8 mL/min/kg and the Vd [25] was 1.76 L/kg. The inhibition [26] was 9%, the Cmax [27] was 957 ng/mL and the Activity (Mus musculus [28]) was “Active”. For the same compound, the inhibition [29] was 8%, the Activity (Mus musculus [30]) was “Active” and the Activity (Mus musculus [31]) was “Active”. The bioavailability [32] was 66%, the inhibition [33] was 11% and the t1/2 [34] was 2 h. The t1/2 [35] was 1.29 h and the Activity (Mus musculus [36]) was “Active”.

With `COc1ccc(C2CNC(=O)C2)cc1OC1CCCC1` (stereo not drawn) the Activity (Mus musculus [37]) was “Active”.
